Data on five molecules can be found in ChEMBL document CHEMBL1128664, “FPL 64176: The effect of the chain length separating the two aryl groups on calcium agonist activity” (Bioorg Med Chem Lett, 1995).

The structures appear in SMILES notation. Calls of active or inactive are those of the source. The calls are words filed in the database; no cut-off is given here.

The subject of experiment [1] is GH3. Kind of experiment: Concentration required for enhancing calcium influx into GH 3 cells was determined. The experiment is classed as functional, cell-based. The note with it: Rattus norvegicus.
Experiment [2] concerns GH3. Kind of experiment: Effect on K+ stimulated [Ca2+] influx in GH3 cells at 10e-5 concentration. It counts as functional, Rattus norvegicus.
In experiment [3] the test system is GH3. As to the kind of experiment: Effect on K+ stimulated [Ca2+] influx in GH3 cells at 10e-6 concentration. The experiment is classed as functional, Rattus norvegicus.
Experiment [4] deals with GH3. Kind of experiment: Effect on K+ stimulated [Ca2+] influx in GH3 cells at 10e-7 concentration. It counts as functional, Rattus norvegicus.
Experiment [5] has as its system GH3. As to the kind of experiment: Effect on K+ stimulated [Ca2+] influx in GH3 cells at 10e-8 concentration. The experiment is classed as functional, Rattus norvegicus.
Experiment [6] deals with GH3. Kind of experiment: Maximal stimulation of Ca 2+ uptake was determined. The experiment is classed as functional, Rattus norvegicus.
For experiment [7], the system named is GH3. As to the kind of experiment: Maximal stimulation of Ca 2+ uptake was determined; no significant effect. The experiment is classed as functional, cell-based. The conditions noted are these: Rattus norvegicus.
For experiment [8], the system named is GH3. Kind of experiment: Concentration required for 84% enhancing calcium influx intoGH 3 cells was determined. The experiment is classed as functional, cell-based. The note with it: Rattus norvegicus.

On to `COC(=O)c1c(C)[nH]c(C)c1C(=O)c1ccccc1CCc1ccccc1`, for which the EC50 with GH3 [1] is 207 nM. In addition, the Increase is 350% with GH3 [2], 340% with GH3 [3], 120% in the experiment on GH3 [4] and 0% with GH3 [5]. Moreover, in the experiment with GH3 [6], the Stimulation is 420%.
With `COC(=O)c1c(C)[nH]c(C)c1C(=O)c1ccccc1-c1ccccc1`, the Increase in the experiment on GH3 [2] is reported as 0%; with GH3 [3], -8%; in the experiment with GH3 [4], -8%; with GH3 [5], 0%. Moreover, the Stimulation result with GH3 [7] was “inactive”.
For the molecule `COC(=O)c1c(C)[nH]c(C)c1C(=O)c1ccccc1CCCCc1ccccc1`, the EC50 with GH3 [8] was 10000 nM. Besides, the Increase with GH3 [2] is on record as 20%; with GH3 [3] it was 80%; in the experiment with GH3 [4], 20%; in the experiment with GH3 [5], 0%. In addition, in the experiment on GH3 [7], the Stimulation entry was “inactive”.
Regarding `COC(=O)c1c(C)[nH]c(C)c1C(=O)c1ccccc1Cc1ccccc1`, the EC50 with GH3 [1] amounted to 140 nM. Besides, the Increase in the experiment on GH3 [2] is given as 280%; with GH3 [3], 240%; with GH3 [4], 140%; in the experiment on GH3 [5] it was 20%. In the experiment on GH3 [6], the Stimulation was 298%.
On to `COC(=O)c1c(C)[nH]c(C)c1C(=O)c1ccccc1CCCc1ccccc1`, for which the concentration giving a half-maximal response (EC50) in the experiment with GH3 [1] was 614 nM. Further, the Increase in the experiment on GH3 [2] is recorded as 220%; with GH3 [3], 160%; with GH3 [4], 0%; in the experiment on GH3 [5] it was -8%. In the experiment with GH3 [6], the Stimulation was 265%.

As usually defined, the EC50 is the concentration giving half of the maximal effect.
